Like-named read-outs stand apart in the source and are kept apart here.
Experiments:
[1] = cited from earlier work; for Toxicity: Yes/No, Yes for No. 1-14, No for No. 15-18
[2] = system: cell structure having a liver sinusoidal network produced using CMF (Example A); experiment: Toxicity evaluation by ATP assay, cell structure of Example A (produced using CMF); settings: for IC50: Homo sapiens, read-out: IC50 Example A; for MOS value [IC50/Cmax] Example A: ATP assay IC50 divided by Cmax; for MOS value [IC50/Cmax] Example A / IC50 Example A: cell structure produced using CMF, "Outside" = Outside measurement range; for IC50 Example A: ATP assay, drug medium from day 7, replaced day 10, assay after 14 days
Description: (§1) 100 mg of a type I collagen sponge fragment derived from pig skin (commercially available from NH Foods Ltd.) was heated at 200° C. for 24 hours, and thus a collagen component of which at least a part was cross-linked (cross-linked collagen component) was obtained. […] 50 mg of the cross-linked collagen component was put into a 15 mL tube, 5 mL of ultrapure water was added thereto, and the mixture was homogenized using a homogenizer (VH-10 commercially available from As One Corporation) for 6 minutes.
(§2) An aqueous solution containing the homogenized cross-linked collagen component was centrifuged at 10,000 rpm for 10 minutes under conditions of 21° C. The supernatant was suctioned, and collagen pellets were mixed with 5 mL of fresh ultrapure water to prepare a collagen solution. While the tube containing the collagen solution was kept on ice, an ultrasonic treatment was performed using a sonicator (VC50 commercially available from Sonics and Materials) at 100 V for 20 seconds, the sonicator was removed, and the tube containing the collagen solution was then cooled on ice for 10 seconds, which was repeated 100 times. After the ultrasonic treatment was performed 100 times, the collagen solution was filtered with a filter having a pore size of 40 μm to obtain a dispersion solution containing a defibrated collagen component (sCMF). The dispersion solution was freeze-dried by a conventional method to obtain a defibrated collagen component (sCMF) as a dried product.
(§3) A dispersion solution A in which the defibrated collagen component was dispersed in a medium (DMEM) containing serum in which 10 mg/mL of fibrinogen (commercially available from Sigma) was dissolved so that the concentration was 30 mg/mL was obtained. In addition, a dispersion solution B in which cells were dispersed in a medium (DMEM) containing serum in which 10 U/mL of thrombin (commercially available from Sigma) was dissolved so that the total number of cells per well was 30,000 cells. 10 μL of a suspension in which the obtained dispersion solution A (defibrated collagen component) and dispersion solution B were mixed at 1:1 was added to each well of a 48-well plate.
(§4) Regarding the medium, a mixed medium (mass ratio: 1:1) containing a medium for vascular endothelia 1 (ECM) and a medium for mesenchymal stem cell proliferation (MSCGM2), a medium for vascular endothelia 1 (ECM), or a medium for vascular endothelia 1 (ECM) and a medium for hepatocytes (d-HCGM) were used.
(§5) 10 days after the start of the culture, again, the medium was replaced with a medium in which the drug was dissolved, and after 14 days, the cell activity was quantified by ATP assay.
(§6) The toxicity was evaluated with IC50 and MOS value. The MOS value is an index used for toxicity evaluation as a value considering the maximum drug concentration (Cmax).

[3] = system: cell structure having a liver sinusoidal network produced using heparin and a collagen solution (Example B); experiment: Toxicity evaluation by ATP assay, cell structure of Example B (produced using heparin and a collagen solution); settings: for IC50: Homo sapiens, read-out: IC50 Example B; for IC50 Example B: ATP assay, cell structure produced using heparin and collagen solution
Description: as §5
(§7) PXB cells, SEC and LX2 were mixed so that the following proportions and cell amount were obtained, and thereby a cell mixture was obtained. • Total amount of cells per well: 30,000 cells • Cell proportions in tissue:
(§8) The same amounts of 1.0 mg/mL heparin solution (buffer: 100 mM Tris-HCL) and 0.3 mg/mL collagen solution (buffer: 5 mM acetate) were mixed to obtain a heparin/collagen solution.
(§9) 100 μL of the heparin/collagen solution was added to the cell mixture and suspended until the cells were visible, and then centrifuged (400 g×2 min), and a viscous component was formed in the solution.
(§10) After the supernatant was removed from the solution containing the viscous component, a 20 U/mL thrombin solution (solvent: HCM (culture medium for hepatocytes)) was added so that the final volume of the solution was “the number of wells to be seeded”×2 μL volume of the solution, and thereby a cell suspension was obtained.
(§11) 10 mg/mL of a fibrinogen solution was put into a 48 plate, and droplets were formed. The cell suspension was added into the droplets, and then left in the incubator for 40 minutes, and a fibrin gel was formed.
(§12) 0.5 mL of HCM (containing endothelial cell growth supplement) was added to each well in which the fibrin gel was formed, and a liver model was obtained as a cell structure.
as §6

[4] = maximum drug concentration used for MOS value; cited from earlier work
[5] = system: two-dimensional primary human hepatocytes (2D PHH); settings: literature data, "Outside" = Outside measurement range; cited from earlier work
[6] = system: 3D human liver microtissues (3D hLiMT); settings: literature data, "Outside" = Outside measurement range; cited from earlier work
[7] = system: cell structure having a liver sinusoidal network produced using heparin and a collagen solution (Example B); settings: human
Description: as §5, §7, §8, §9, §10, §11, §12, §6

[8] = system: cell structure having a liver sinusoidal network produced using CMF (Example A); settings: human
Description: as §1, §2, §3, §4, §5, §6

[9] = system: liver sinusoidal network of liver model (PXB cells, SEC, LX2); experiment: Monocrotaline administration experiment, CD31 immunostaining of liver model; format: cell-based, human; settings: monocrotaline 2,000, 666, 222 or 74 μM on Day 1 and Day 4; observed Day 7; 1% DMSO
Description: 1 day (Day 1) and 4 days (Day 4) after the start of the culture of the liver model, administration was performed on the liver model by replacing the medium with a medium containing monocrotaline at a concentration of 2,000 μM, 666 μM, 222 μM, or 74 μM. Here, the compound used was dissolved in advance in DMSO at a high concentration and stored, and during administration, DMSO was contained at a concentration of 1% in the medium. Since 1% DMSO was contained in each administration condition, replacement of the medium with a medium containing only 1% DMSO was performed at the same time, and the result was used as a negative control.
For the samples on which administration was performed, a fixing treatment, a permeation treatment, blocking, a primary antibody treatment, a secondary antibody treatment, imaging and area calculation and evaluation were performed in that order. Hereinafter, the procedure from the fixing treatment to evaluation will be described. […]
The intensities of the images captured by the above method were added up to obtain a fluorescence observation image of each liver model.

[10] = "Outside" = Outside measurement range

**Q.** What does the source list for `CC(=O)Nc1ccc(O)cc1` [Acetaminophen]?
**A.** Toxicity [1]: Yes; IC50 [2]: 761 µM; IC50 [3]: 868 µM; Cmax [4]: 165 µM

**Q.** For `COc1ccccc1Oc1c(NS(=O)(=O)c2ccc(C(C)(C)C)cc2)nc(-c2ncccn2)nc1OCCO` [Bosentan], which Toxicity [1] is on record?
**A.** Yes

**Q.** And the “MOS value [IC50/Cmax] Reference Example A” value [5]?
**A.** Outside

**Q.** And the IC50 [2]?
**A.** 67.1 µM

**Q.** What about the IC50 [3] of the same compound?
**A.** 209 µM

**Q.** And the Cmax [4]?
**A.** 7.43 µM

**Q.** For `O=P1(N(CCCl)CCCl)NCCCO1` (stereo not drawn) [Cyclophosphamide], which “MOS value [IC50/Cmax] Reference Example B” value [6] is on record?
**A.** Outside

**Q.** And the Toxicity [1]?
**A.** Yes

**Q.** And the “MOS value [IC50/Cmax] Reference Example A” value [5]?
**A.** Outside

**Q.** What about the IC50 [2] of the same compound?
**A.** 1670 µM

**Q.** What about the IC50 [3] of the same compound?
**A.** 1360 µM

**Q.** What about the Cmax [4] of the same compound?
**A.** 143 µM

**Q.** For `O=C(O)Cc1ccccc1Nc1c(Cl)cccc1Cl` [Diclofenac], which IC50 [2] is on record?
**A.** 64.1 µM

**Q.** What about the IC50 [3] of the same compound?
**A.** 232 µM

**Q.** And the Cmax [4]?
**A.** 10.1 µM

**Q.** For `Cc1onc(-c2c(F)cccc2Cl)c1C(=O)N[C@@H]1C(=O)N2[C@@H]1SC(C)(C)[C@@H]2C(=O)O` [Flucloxacillin], which Toxicity [1] is on record?
**A.** Yes

**Q.** What about the IC50 [2] of the same compound?
**A.** 1390 µM

**Q.** What about the IC50 [3] of the same compound?
**A.** 5800 µM

**Q.** And the Cmax [4]?
**A.** 66.1 µM

**Q.** For `CCOC(=O)c1ncn2c1CN(C)C(=O)c1cc(F)ccc1-2` [Flumazenil], which “MOS value [IC50/Cmax] Reference Example B” value [6] is on record?
**A.** Outside

**Q.** And the Toxicity [1]?
**A.** No

**Q.** What about the “DILI severity category (LKBT)” value ([1]; drug-induced liver injury severity category) of the same compound?
**A.** I

**Q.** And the “MOS value [IC50/Cmax] Reference Example A” value [5]?
**A.** Outside

**Q.** And the “MOS value [IC50/Cmax] Example A” value [2]?
**A.** Outside

**Q.** And the “IC50 Example A” value [2]?
**A.** Outside

**Q.** What about the “MOS value [IC50/Cmax] Example B” value ([3]; ATP assay IC50 divided by Cmax, cell structure produced using heparin and collagen, "Outside" = Outside measurement range) of the same compound?
**A.** Outside

**Q.** What about the “IC50 Example B” value [3, 10] of the same compound?
**A.** Outside

**Q.** And the Cmax [4]?
**A.** 1.12 µM

**Q.** For `C[C@H]1COc2c(N3CCN(C)CC3)c(F)cc3c(=O)c(C(=O)O)cn1c23` [Levofloxacin], which “MOS value [IC50/Cmax] Reference Example B” value [6] is on record?
**A.** Outside

**Q.** What about the Toxicity [1] of the same compound?
**A.** Yes

**Q.** And the “MOS value [IC50/Cmax] Reference Example A” value [5]?
**A.** Outside

**Q.** And the “MOS value [IC50/Cmax] Example A” value [2]?
**A.** Outside

**Q.** What about the IC50 [3] of the same compound?
**A.** 960 µM

**Q.** And the Cmax [4]?
**A.** 15.8 µM

**Q.** What does the source list for `Nc1cc(N2CCCCC2)nc(N)[n+]1[O-]` [Minoxidil0]?
**A.** IC50 Example A [2]: Outside; IC50 Example B [3, 10]: Outside; Cmax [4]: 1.19 µM

**Q.** Which Toxicity [1] does the source give for `CCc1nn(CCCN2CCN(c3cccc(Cl)c3)CC2)c(=O)n1CCOc1ccccc1` [Nefazodone] here?
**A.** Yes

**Q.** And the IC50 [2]?
**A.** 22.1 µM

**Q.** And the IC50 [3]?
**A.** 32.4 µM

**Q.** What about the Cmax [4] of the same compound?
**A.** 4.26 µM

**Q.** Which Toxicity [1] does the source give for `C1CCC(C(CC2CCCCN2)C2CCCCC2)CC1` (stereo not drawn) [Perhexiline] here?
**A.** Yes

**Q.** And the “MOS value [IC50/Cmax] Example B” value [7]?
**A.** 1.5

**Q.** And the IC50 [2]?
**A.** 5.4 µM

**Q.** And the IC50 [3]?
**A.** 3.2 µM

**Q.** What about the “MOS value [IC50/Cmax] Example A” value [8] of the same compound?
**A.** 2.5

**Q.** Which Toxicity [1] does the source give for `Cc1ccc(N(CC2=NCCN2)c2cccc(O)c2)cc1` [Phentolamine] here?
**A.** No

**Q.** What about the IC50 [2] of the same compound?
**A.** 180 µM

**Q.** What about the IC50 [3] of the same compound?
**A.** 66 µM

**Q.** What about the Cmax [4] of the same compound?
**A.** 0.09 µM

**Q.** Which Toxicity [1] does the source give for `CN(C)C(=O)Oc1ccc[n+](C)c1` [Pyridostigmine] here?
**A.** No

**Q.** And the “IC50 Example A” value [2]?
**A.** Outside

**Q.** What about the “IC50 Example B” value [3, 10] of the same compound?
**A.** Outside

**Q.** What about the Cmax [4] of the same compound?
**A.** 1.1 µM

**Q.** Which Toxicity [1] does the source give for `CN(CCOc1ccc(CC2SC(=O)NC2=O)cc1)c1ccccn1` (stereo not drawn) [Rosiglitazone] here?
**A.** Yes

**Q.** And the “MOS value [IC50/Cmax] Reference Example A” value [5]?
**A.** Outside

**Q.** And the IC50 [2]?
**A.** 46.5 µM

**Q.** What about the IC50 [3] of the same compound?
**A.** 79.1 µM

**Q.** What about the Cmax [4] of the same compound?
**A.** 1.04 µM

**Q.** Which Toxicity [1] does the source give for `Cc1ccc(C(=O)c2cc(O)c(O)c([N+](=O)[O-])c2)cc1` [Tolcapone] here?
**A.** Yes

**Q.** What about the IC50 [2] of the same compound?
**A.** 32.4 µM

**Q.** And the IC50 [3]?
**A.** 88.7 µM

**Q.** What about the Cmax [4] of the same compound?
**A.** 47.6 µM

**Q.** For `Cc1c(C)c2c(c(C)c1O)CCC(C)(COc1ccc(CC3SC(=O)NC3=O)cc1)O2` (stereo not drawn) [Troglitazone], which Toxicity [1] is on record?
**A.** Yes

**Q.** What about the IC50 [2] of the same compound?
**A.** 17.1 µM

**Q.** What about the IC50 [3] of the same compound?
**A.** 50.2 µM

**Q.** For `CCOC(=O)CN[C@@H](C(=O)N1CC[C@H]1C(=O)NCc1ccc(/C(N)=N\O)cc1)C1CCCCC1` [Ximelagatran], which Toxicity [1] is on record?
**A.** Yes

**Q.** What about the Cmax [4] of the same compound?
**A.** 0.45 µM

**Q.** Which “Fragmentation of liver sinusoidal network (CD31 immunostaining)” value [9] does the source give for `C[C@H]1C(=O)O[C@@H]2CCN3CC=C(COC(=O)[C@](C)(O)[C@]1(C)O)[C@H]23` [monocrotaline] here?
**A.** liver sinusoidal network became fragmented as the monocrotaline concentration increased
